Test results taken from PubChem BioAssay (NCI).
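Values below derive from 48-hour exposures of cells grown in 96-well plates, with endpoints linearly interpolated between the two concentrations bracketing the appropriate inhibition level. Abbreviation: GI50, concentration required for 50% inhibition of growth. TGI marks complete inhibition of growth.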

Experiments:
Test in all cases: DTP human tumour cell line panel, 48 h
[1] = system: UACC-62 melanoma
[2] = system: SW-620 colon
[3] = system: A549 NSCLC
[4] = system: KM12 colon
[5] = system: PC-3 prostate
[6] = system: A498 renal
[7] = system: HOP-62 NSCLC
[8] = system: HCT-116 colon
[9] = system: BT-549 breast
[10] = system: MOLT-4 leukemia
[11] = system: UO-31 renal
[12] = system: SF-295 CNS
[13] = system: SF-268 CNS
[14] = system: SNB-19 CNS
[15] = system: SR leukemia
[16] = system: MDA-MB-435
[17] = system: IGROV1 ovarian
[18] = system: NCI-H522 lung
[19] = system: OVCAR-4 ovarian
[20] = system: MDA-MB-231 breast
[21] = system: HCT-15 colon
[22] = system: UACC-257 melanoma
[23] = system: M14 melanoma
[24] = system: HT29 colon
[25] = system: RPMI-8226 leukemia
[26] = system: SF-539 CNS
[27] = system: SK-MEL-5 melanoma
[28] = system: COLO 205 colon
[29] = system: TK-10 renal
[30] = system: DU-145 prostate
[31] = system: HS 578T breast
[32] = system: EKVX NSCLC
[33] = system: 786-0 renal
[34] = system: CCRF-CEM leukemia
[35] = system: SK-MEL-28 melanoma
[36] = system: ACHN renal
[37] = system: U251 CNS
[38] = system: HCC-2998 colon
[39] = system: LOX IMVI melanoma
[40] = system: HL-60(TB) leukemia
[41] = system: NCI/ADR-RES ovarian
[42] = system: SN12C renal
[43] = system: K-562 leukemia
[44] = system: NCI-H226 lung
[45] = system: NCI-H23 lung
[46] = system: NCI-H460 lung
[47] = system: OVCAR-5 ovarian
[48] = system: MCF7 breast
[49] = system: RXF 393 renal
[50] = system: HOP-92 NSCLC
[51] = system: SNB-75 CNS
[52] = system: CAKI-1 renal
[53] = system: SK-OV-3 ovarian
[54] = system: SK-MEL-2 melanoma
[55] = system: OVCAR-8 ovarian

CCN1C(=O)N(CC)C2SC(N/N=C/c3ccc(OC)cc3)=NC21 (stereo not given)
GI50 [1]: 390 nM | TGI [1]: > 100000 nM | GI50 [2]: 380 nM | TGI [2]: > 100000 nM | GI50 [3]: 666 nM | TGI [3]: > 100000 nM | GI50 [4]: 457 nM | TGI [4]: > 100000 nM | GI50 [5]: 449 nM | TGI [5]: > 100000 nM | GI50 [6]: 217 nM | TGI [6]: 685 nM | GI50 [7]: 433 nM | TGI [7]: > 100000 nM | GI50 [8]: 394 nM | TGI [8]: > 40300 nM | GI50 [9]: 322 nM | TGI [9]: 1320 nM | GI50 [10]: 589 nM | TGI [10]: > 100000 nM | GI50 [11]: 686 nM | TGI [11]: > 100000 nM | GI50 [12]: 317 nM | TGI [12]: > 83800 nM | GI50 [13]: 2510 nM | TGI [13]: > 100000 nM | GI50 [14]: 464 nM | TGI [14]: > 100000 nM | GI50 [15]: 308 nM | TGI [15]: > 100000 nM | GI50 [16]: 205 nM | TGI [16]: 522 nM | GI50 [17]: 648 nM | TGI [17]: > 100000 nM | GI50 [18]: 235 nM | TGI [18]: 760 nM | GI50 [19]: > 100000 nM | TGI [19]: > 100000 nM | GI50 [20]: 868 nM | TGI [20]: > 100000 nM | GI50 [21]: 404 nM | TGI [21]: > 100000 nM | GI50 [22]: 2320 nM | TGI [22]: > 100000 nM | GI50 [23]: 322 nM | TGI [23]: 34200 nM | GI50 [24]: 322 nM | TGI [24]: 1280 nM | GI50 [25]: 423 nM | TGI [25]: > 100000 nM | GI50 [26]: 269 nM | TGI [26]: 857 nM | GI50 [27]: 462 nM | TGI [27]: 3010 nM | GI50 [28]: 273 nM | TGI [28]: 751 nM | GI50 [29]: > 100000 nM | TGI [29]: > 100000 nM | GI50 [30]: 478 nM | TGI [30]: > 100000 nM | GI50 [31]: 305 nM | TGI [31]: > 100000 nM | GI50 [32]: 704 nM | TGI [32]: > 100000 nM | GI50 [33]: 849 nM | TGI [33]: 51700 nM | GI50 [34]: 334 nM | TGI [34]: > 100000 nM | GI50 [35]: > 100000 nM | TGI [35]: > 100000 nM | GI50 [36]: 811 nM | TGI [36]: > 100000 nM | GI50 [37]: 365 nM | TGI [37]: > 100000 nM | GI50 [38]: 795 nM | TGI [38]: > 100000 nM | GI50 [39]: 564 nM | TGI [39]: > 100000 nM | GI50 [40]: 281 nM | TGI [40]: 9060 nM | GI50 [41]: 395 nM | TGI [41]: > 100000 nM | GI50 [42]: 594 nM | TGI [42]: > 100000 nM | GI50 [43]: 350 nM | TGI [43]: > 100000 nM | GI50 [44]: 438 nM | TGI [44]: > 72000 nM | GI50 [45]: 570 nM | TGI [45]: > 100000 nM | GI50 [46]: 357 nM | TGI [46]: > 100000 nM | GI50 [47]: 917 nM | TGI [47]: > 100000 nM | GI50 [48]: 381 nM | TGI [48]: > 100000 nM | GI50 [49]: 282 nM | TGI [49]: > 100000 nM | GI50 [50]: 283 nM | TGI [50]: 4660 nM | GI50 [51]: 321 nM | TGI [51]: > 100000 nM | GI50 [52]: 425 nM | TGI [52]: > 100000 nM | GI50 [53]: 453 nM | TGI [53]: > 100000 nM | GI50 [54]: 504 nM | TGI [54]: > 100000 nM | GI50 [55]: 428 nM | TGI [55]: 6610 nM
